Test results: ChEMBL document CHEMBL3885861, “Open TG-GATES”

Organism: Rattus norvegicus
Test: Open TG-GATES - Regimen: Daily Repeat
Format: toxicity, organism-based, Sprague-Dawley
Parameters: regimen Daily Repeat, gender Male, age 6 weeks
Details: in vivo, po, 300 mg/kg, route gavage, dose level Middle; for APTT / Bas / Eos / Fbg / Hb / Ht / Lym / MCHC / MCV / Mono / Neu / PT / Plat / RBC / Ret / WBC: tissue Blood; for KIDNEY_L / KIDNEY_R / KIDNEY_TOTAL: tissue Kidney; for LIVER: tissue Liver; for ALP / ALT / AST / BUN / CRE / Ca / Cl / DBIL / GLC / IP / K / LDH / Na / PL / RALB / TBIL / TG / TP / gamma-GTP: tissue Plasma

CN(C)C(=N)N=C(N)N [METFORMIN]
TERMINAL_BW (72 h, time 3 day): 223.9 g | APTT (72 h, time 3 day): 17.6 s | Bas (72 h, time 3 day): 0% | Eos (72 h, time 3 day): 1% | Fbg (72 h, time 3 day): 251.8 mg/dL | Hb (72 h, time 3 day): 13.2 g/dL | Ht (72 h, time 3 day): 39.3% | Lym (72 h, time 3 day): 78.2% | MCHC (72 h, time 3 day): 33.6% | MCV (72 h, time 3 day): 63.4 fL | Mono (72 h, time 3 day): 3.2% | Neu (72 h, time 3 day): 17.2% | PT (72 h, time 3 day): 12.7 s | Plat (72 h, time 3 day): 115.7 x10_4/uL | RBC (72 h, time 3 day): 621.4 x10_4/ul | Ret (72 h, time 3 day): 7.1% | WBC (72 h, time 3 day): 94 x10_2/uL | KIDNEY_L (72 h, time 3 day): 1 g | KIDNEY_R (72 h, time 3 day): 1 g | KIDNEY_TOTAL (72 h, time 3 day): 2 g | LIVER (72 h, time 3 day): 11.3 g | ALP (72 h, time 3 day): 1558.4 IU/L | ALT (72 h, time 3 day): 52.2 IU/L | AST (72 h, time 3 day): 78.4 IU/L | BUN (72 h, time 3 day): 15.8 mg/dL | CRE (72 h, time 3 day): 0.2 mg/dL | Ca (72 h, time 3 day): 11.1 mg/dL | Cl (72 h, time 3 day): 104.8 meq/L | DBIL (72 h, time 3 day): 0.016 mg/dL | GLC (72 h, time 3 day): 193.2 mg/dL | IP (72 h, time 3 day): 8.3 mg/dL | K (72 h, time 3 day): 3.9 meq/L | LDH (72 h, time 3 day): 62.2 IU/L | Na (72 h, time 3 day): 141.6 meq/L | PL (72 h, time 3 day): 140.8 mg/dL | RALB (72 h, time 3 day): 2.6 g/dL | TBIL (72 h, time 3 day): 0.038 mg/dL | TG (72 h, time 3 day): 68.2 mg/dL | TP (72 h, time 3 day): 5.6 g/dL | gamma-GTP (72 h, time 3 day): 1 IU/L | TERMINAL_BW ([…], time 7 day): 256.3 g | TERMINAL_BW ([…], time 14 day): 308.9 g | TERMINAL_BW ([…], time 28 day): 387.2 g | APTT ([…], time 7 day): 16 s | Bas ([…], time 7 day): 0% | Eos ([…], time 7 day): 1% | Fbg ([…], time 7 day): 279.8 mg/dL | Hb ([…], time 7 day): 13.8 g/dL | Ht ([…], time 7 day): 41% | Lym ([…], time 7 day): 77.6% | MCHC ([…], time 7 day): 33.7% | MCV ([…], time 7 day): 62.5 fL | Mono ([…], time 7 day): 3.6% | Neu ([…], time 7 day): 17.4% | PT ([…], time 7 day): 12 s | Plat ([…], time 7 day): 126.1 x10_4/uL | RBC ([…], time 7 day): 656.2 x10_4/ul | Ret ([…], time 7 day): 5.6% | WBC ([…], time 7 day): 77.5 x10_2/uL | APTT ([…], time 14 day): 17.2 s | Bas ([…], time 14 day): 0.2% | Eos ([…], time 14 day): 1.2% | Fbg ([…], time 14 day): 248.8 mg/dL | Hb ([…], time 14 day): 14.3 g/dL | Ht ([…], time 14 day): 41.6% | Lym ([…], time 14 day): 78.6% | MCHC ([…], time 14 day): 34.4% | MCV ([…], time 14 day): 60.4 fL | Mono ([…], time 14 day): 2.6% | Neu ([…], time 14 day): 17% | PT ([…], time 14 day): 12.2 s | Plat ([…], time 14 day): 116.5 x10_4/uL | RBC ([…], time 14 day): 690.4 x10_4/ul | Ret ([…], time 14 day): 4.6% | WBC ([…], time 14 day): 107 x10_2/uL | APTT ([…], time 28 day): 19.8 s | Bas ([…], time 28 day): 0.2% | Eos ([…], time 28 day): 1% | Fbg ([…], time 28 day): 261.8 mg/dL | Hb ([…], time 28 day): 15.3 g/dL | Ht ([…], time 28 day): 44.3% | Lym ([…], time 28 day): 79.4% | MCHC ([…], time 28 day): 34.5% | MCV ([…], time 28 day): 57 fL | Mono ([…], time 28 day): 2.6% | Neu ([…], time 28 day): 16.2% | PT ([…], time 28 day): 12.2 s | Plat ([…], time 28 day): 100.1 x10_4/uL | RBC ([…], time 28 day): 777.2 x10_4/ul | Ret ([…], time 28 day): 2.5% | WBC ([…], time 28 day): 112.9 x10_2/uL | KIDNEY_L ([…], time 7 day): 1 g | KIDNEY_R ([…], time 7 day): 1 g | KIDNEY_TOTAL ([…], time 7 day): 2.1 g | KIDNEY_L ([…], time 14 day): 1.2 g | KIDNEY_R ([…], time 14 day): 1.2 g | KIDNEY_TOTAL ([…], time 14 day): 2.4 g | KIDNEY_L ([…], time 28 day): 1.4 g | KIDNEY_R ([…], time 28 day): 1.4 g | KIDNEY_TOTAL ([…], time 28 day): 2.9 g | LIVER ([…], time 7 day): 12.7 g | LIVER ([…], time 14 day): 14 g | LIVER ([…], time 28 day): 16.4 g | ALP ([…], time 7 day): 1101.6 IU/L | ALT ([…], time 7 day): 61 IU/L | AST ([…], time 7 day): 83.2 IU/L | BUN ([…], time 7 day): 15.6 mg/dL | CRE ([…], time 7 day): 0.2 mg/dL | Ca ([…], time 7 day): 10.8 mg/dL | Cl ([…], time 7 day): 106.2 meq/L | DBIL ([…], time 7 day): 0.014 mg/dL | GLC ([…], time 7 day): 182.8 mg/dL | IP ([…], time 7 day): 8.2 mg/dL | K ([…], time 7 day): 4.6 meq/L | LDH ([…], time 7 day): 102.8 IU/L | Na ([…], time 7 day): 141.8 meq/L | PL ([…], time 7 day): 144.4 mg/dL | RALB ([…], time 7 day): 2.7 g/dL | TBIL ([…], time 7 day): 0.028 mg/dL | TG ([…], time 7 day): 119.6 mg/dL | TP ([…], time 7 day): 5.7 g/dL | gamma-GTP ([…], time 7 day): 0.8 IU/L | ALP ([…], time 14 day): 1291.2 IU/L | ALT ([…], time 14 day): 50.4 IU/L | AST ([…], time 14 day): 73 IU/L | BUN ([…], time 14 day): 16.4 mg/dL | CRE ([…], time 14 day): 0.2 mg/dL | Ca ([…], time 14 day): 10.9 mg/dL | Cl ([…], time 14 day): 104.8 meq/L | DBIL ([…], time 14 day): 0.016 mg/dL | GLC ([…], time 14 day): 190.4 mg/dL | IP ([…], time 14 day): 7.1 mg/dL | K ([…], time 14 day): 3.8 meq/L | LDH ([…], time 14 day): 72.2 IU/L | Na ([…], time 14 day): 142.4 meq/L | PL ([…], time 14 day): 157.6 mg/dL | RALB ([…], time 14 day): 2.7 g/dL | TBIL ([…], time 14 day): 0.032 mg/dL | TG ([…], time 14 day): 134.4 mg/dL | TP ([…], time 14 day): 5.9 g/dL | gamma-GTP ([…], time 14 day): 1 IU/L | ALP ([…], time 28 day): 1096.8 IU/L | ALT ([…], time 28 day): 47.2 IU/L | AST ([…], time 28 day): 68.8 IU/L | BUN ([…], time 28 day): 15.6 mg/dL | CRE ([…], time 28 day): 0.2 mg/dL | Ca ([…], time 28 day): 11.1 mg/dL | Cl ([…], time 28 day): 105.6 meq/L | DBIL ([…], time 28 day): 0.016 mg/dL | GLC ([…], time 28 day): 187.6 mg/dL | IP ([…], time 28 day): 6.8 mg/dL | K ([…], time 28 day): 3.8 meq/L | LDH ([…], time 28 day): 52 IU/L | Na ([…], time 28 day): 145.4 meq/L | PL ([…], time 28 day): 150.4 mg/dL | RALB ([…], time 28 day): 2.8 g/dL | TBIL ([…], time 28 day): 0.036 mg/dL | TG ([…], time 28 day): 158.2 mg/dL | TP ([…], time 28 day): 6.2 g/dL | gamma-GTP ([…], time 28 day): 1 IU/L
